pKi: −log10 of the molar value.
Biological target: Norepinephrine transporter (Rattus norvegicus, UniProt Q9JIA2)

CN1Cc2c(N)cccc2[C@H](c2ccccc2)C1 [(+/-)-2-Methyl-4-phenyl-1,2,3,4-tetrahydro-isoquinolin-8-ylamine]
pKi: 7.80

From BindingDB's records for doi:10.1016/0028-3908(88)90149-9 (Organon International, 1988)
